The supplement of paper PMC11061612

Columns and labels:
Assay in all cases: Bliss excess, mean over the matrix (fraction); higher = more synergy
[1] = test system: P32-ISH (Burkitt's Lymphoma)
Summary of the method: (§1)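 Cell lines grown in DMEM/F12 or RPMI with 10% FBS were plated in 1536-well plates and held 24 hours at 37°C, 5% CO2 before 72 hours of exposure to two-drug dose matrices, with DMSO typically at 0.2%. CellTiter-Glo 2.0 luminescence gave viability, which was converted to inhibition. Vehicle wells were set to 0 and blank wells to 1. Combination Emax is the second-highest inhibition in the matrix, and Bliss excess is the observed combination effect minus the expected EA + EB − EA·EB, where EA and EB are the single-agent effects.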

[2] = test system: COR-L88 (Small Cell Lung Carcinoma)
Summary of the method: as §1

[3] = test system: IA-LM (Non-Small Cell Lung Carcinoma)
Summary of the method: as §1

[4] = test system: Raji (Burkitt's Lymphoma)
Summary of the method: as §1

[5] = test system: NCI-H3118 (Head and Neck Carcinoma)
Summary of the method: as §1

AM-38 (Glioblastoma) = test system: AM-38 (Glioblastoma)
Summary of the method: as §1

[6] = test system: CPC-N (Small Cell Lung Carcinoma)
Summary of the method: as §1

[7] = test system: OAW-28 (Ovarian Carcinoma)
Summary of the method: as §1

[8] = test system: CL-11 (Colorectal Carcinoma)
Summary of the method: as §1

[9] = test system: ZR-75-30 (Breast Carcinoma)
Summary of the method: as §1

[10] = test system: SNU-C2B (Colorectal Carcinoma)
Summary of the method: as §1

[11] = test system: RCC-JW (Kidney Carcinoma)
Summary of the method: as §1

NCI-H226 (Mesothelioma) = test system: NCI-H226 (Mesothelioma)
Summary of the method: as §1

[12] = test system: BxPC-3 (Pancreatic Carcinoma)
Summary of the method: as §1

[13] = test system: SNU-423 (Hepatocellular Carcinoma)
Summary of the method: as §1

[14] = test system: SK-CO-1 (Colorectal Carcinoma)
Summary of the method: as §1

[15] = test system: SUP-M2 (T-Cell Non-Hodgkin's Lymphoma)
Summary of the method: as §1

[16] = test system: P30-OHK (B-Lymphoblastic Leukemia)
Summary of the method: as §1

[17] = test system: NCI-H1876 (Small Cell Lung Carcinoma)
Summary of the method: as §1

[18] = test system: SKG-IIIa (Cervical Carcinoma)
Summary of the method: as §1

Row | Compound | Bliss excess [1] | Bliss excess [2] | Bliss excess [3] | Bliss excess [4] | Bliss excess [5] | Bliss excess (AM-38 (Glioblastoma)) | Bliss excess [6] | Bliss excess [7] | Bliss excess [8] | Bliss excess [9] | Bliss excess [10] | Bliss excess [11] | Bliss excess (NCI-H226 (Mesothelioma)) | Bliss excess [12] | Bliss excess [13] | Bliss excess [14] | Bliss excess [15] | Bliss excess [16] | Bliss excess [17] | Bliss excess [18]
1 | COc1nnc2ccc(N3CCC(c4ccc(OCCN5CCN(C)C(=O)[C@H]5C)cc4)CC3)nn12 [AZD5153] + CC1(C)CCC(CN2CCN(c3ccc(C(=O)NS(=O)(=O)c4ccc(NCC5CCOCC5)c([N+](=O)[O-])c4)c(Oc4cnc5[nH]ccc5c4)c3)CC2)=C(c2ccc(Cl)cc2)C1 [Venetoclax] (first compound max 1 µM, 7x7, partner max 1 µM) | -0.0067 | -0.0179 | -0.0639 | -0.0247 | -0.0517 | -0.135 | 0.0046 | -0.0949 | -0.0302 | -0.0852 | -0.0598 | -0.0551 | -0.0192 | -0.0745 | -0.0223 | -0.0312 | -0.0172 | 0.102 | 0.0029 | -0.068
2 | C[C@@H]1COCCN1c1cc(C2([S@](C)(=N)=O)CC2)nc(-c2ccnc3[nH]ccc23)n1 [AZD6738] + O=C(c1cc(Cc2n[nH]c(=O)c3ccccc23)ccc1F)N1CCN(C(=O)C2CC2)CC1 [Olaparib] (first compound max 10 µM, 7x7, partner max 10 µM) | -0.0424 | -0.12 | 0.0137 | -0.0204 | -0.0038 | 0.0226 | 0.015 | -0.0159 | 0.0013 | -0.0408 | 0.0123 | 0.0465 | -0.0156 | 0.0231 | -0.0005 | 0.013 | 0.0646 | 0.0469 | -0.005 | 0.0236
